The source of these data is patent US20240327432A1, “THIOPHENE-PHENOTHIAZINE COMPOUNDS AND SYNTHESIS METHOD THEREOF, AS WELL AS APPLICATION THEREOF IN PREPARATION OF PHOTOTHERAPY MEDICINES” (Guangzhou Medical University, priority 2023, published 2024).

The subject of data set [1] is MCF-7 cells. Put plainly: Phototoxicity measurement (CCK-8), MCF-7. Format: cell-based, human. The conditions noted are these: for IC50: Homo sapiens, MCF7, light or radiation study, 1 h incubation, 630 nm LED, 3.2 J cm^−2, then 24 h, read-out: PDK IC50 (phototoxicity). As for the experimental part: (§1) (1) Cell culture: HUVEC cells (human umbilical vein endothelial cells), A549 cells (human lung cancer cells), MCF-7 cells (human breast cancer cells), HeLa cells (human cervical cancer cells) and 4T1 cells (mouse breast cancer cells) were cultured in a DMEM high-glucose medium containing 10% fetal bovine serum and 1% penicillin-streptomycin at 37° C. and under a condition of a 5% carbon dioxide content. The HUVEC cells, the A549 cells, the MCF-7 cells, the HeLa cells and the 4T1 cells, at a logarithmic growth phase, were taken and inoculated into a 96-well plate, respectively, with approximately 1×10^4 cells per well, and incubation was performed overnight at 37° C. and under a condition of 5% CO2.
(§2) (3) Phototoxicity measurement: the cells were incubated in the dark with the compound of the present invention of different concentrations for 1 hour, rinsing was performed with PBS, a fresh culture solution was added, and the cells were irradiated with 630 nm LED light (light dose is 3.2 J cm^−2). Then the cells were incubated in the dark environment for 24 hours, and cell viability was measured by the CCK-8 method.

Data set [2] can be described thus: Fluorescence emission spectrum. Format: physicochemical. The conditions noted are these: for λem (maximum fluorescence emission wavelength): excitation 650 nm, solvent methanol; for ϕF (fluorescence quantum yield): ϕF of MB as reference (0.04, methanol). As for the experimental part:
Detection of the thiophene-phenothiazine compounds prepared in Examples 1-5: the absorption spectrum of the thiophene-phenothiazine compound in an ethanol solution was measured by using a UV-visible spectrophotometer, and spectral properties of the thiophene-phenothiazine compound were analyzed according to Beer-Lambert law; […] with a wavelength of 650 nm, and results are shown in Table 1 and FIGS. 2-3.
(§3) • a. Absorbance was measured in ethanol. • b. During fluorescence emission spectrum measurement, an excitation wavelength was 650 nm, and a solvent was methanol. • c. ϕF of MB was used as a reference [ϕF=0.04, methanol].

The subject of data set [3] is HeLa cells. The data set can be described thus: Dark toxicity measurement (CCK-8), HeLa. The conditions noted are these: Homo sapiens, 24 h in dark, read-out: DK IC50 (dark toxicity). Format: cell-based. The method, then:
as §1
(§4) (2) Dark toxicity measurement: the cells were incubated in a dark environment with the compound of the present invention of different concentrations for 24 hours, and cell viability was measured by a CCK-8 method.

Data set [4] relates to A549 cells. The data set can be described thus: Phototoxicity measurement (CCK-8), A549. Format: cell-based, human. The conditions noted are these: for IC50: Homo sapiens, light or radiation study, 1 h incubation, 630 nm LED, 3.2 J cm^−2, then 24 h, read-out: PDK IC50 (phototoxicity). As for the experimental part: as §1, §2
For data set [5], the system named is HeLa cells. The data set can be described thus: Phototoxicity measurement (CCK-8), HeLa. Format: cell-based, human. The conditions noted are these: for IC50: Homo sapiens, light or radiation study, 1 h incubation, 630 nm LED, 3.2 J cm^−2, then 24 h, read-out: PDK IC50 (phototoxicity). The method, then:
as §1, §2

Data set [6] can be described thus: Absorption spectrum by UV-visible spectrophotometer. Format: physicochemical. The conditions noted are these: measured in ethanol. The method, then: Detection of the thiophene-phenothiazine compounds prepared in Examples 1-5: the absorption spectrum of the thiophene-phenothiazine compound in an ethanol solution was measured by using a UV-visible spectrophotometer, and spectral properties of the thiophene-phenothiazine compound were analyzed according to Beer-Lambert law; and a fluorescence emission spectrum of the thiophene-phenothiazine compound in the ethanol solution was measured under excitation of light with a wavelength of 650 nm, and results are shown in Table 1 and FIGS. 2-3.
as §3

The subject of data set [7] is MCF-7 cells. The data set can be described thus: Dark toxicity measurement (CCK-8), MCF-7. Format: cell-based. The conditions noted are these: Homo sapiens, MCF7, 24 h in dark, read-out: DK IC50 (dark toxicity). The method, then:
as §1, §4

A further data set relates to HUVEC cells. Put plainly: Dark toxicity measurement (CCK-8), HUVEC. The conditions noted are these: Homo sapiens, 24 h in dark. Format: cell-based. As for the experimental part: as §1, §4
The test system of data set [8] is A549 cells. The data set can be described thus: Dark toxicity measurement (CCK-8), A549. The format is cell-based. The conditions noted are these: Homo sapiens, 24 h in dark, read-out: DK IC50 (dark toxicity). The method, then:
as §1, §4

For data set [9], the system named is 4T1 cells. The data set can be described thus: Dark toxicity measurement (CCK-8), 4T1. The format is cell-based, mouse. The conditions noted are these: 24 h in dark, read-out: DK IC50 (dark toxicity). The method, then:
as §1, §4

For data set [10], the system named is 4T1 cells. The data set can be described thus: Phototoxicity measurement (CCK-8), 4T1. Format: cell-based, mouse. The conditions noted are these: for IC50: 1 h incubation, 630 nm LED, 3.2 J cm^−2, then 24 h, read-out: PDK IC50 (phototoxicity). As for the experimental part: as §1, §2
The mark [11] stands for this setting: Mus musculus, light or radiation study.

On to `CCN(CC)c1ccc2c(c1)S(Cl)=c1cc(N)c3ccsc3c1=N2` (stereo not drawn) [Compound I-1], for which the “PI (phototherapeutic index)” value with MCF-7 cells [1] is recorded as 9.03; in the data set with A549 cells [4], 16.47; in the data set with HeLa cells [5], 10.26; in the data set on 4T1 cells [10], 17.69. Besides, the IC50 with MCF-7 cells [1] worked out at 390 nM; in the data set on HeLa cells [3] it was 3740 nM; with A549 cells [4] it was 460 nM; in the data set on HeLa cells [5], 360 nM; with MCF-7 cells [7], 3.56 µM; in the data set on HUVEC cells it was 25.2 µM. The IC50 was 7.54 µM with A549 cells [8], 15.4 µM with 4T1 cells [9] (Mus musculus) and 870 nM with 4T1 cells [10] (setting [11]). For the same compound, the “λem (maximum fluorescence emission wavelength)” value (“λem” below) in [2] is 692 nm. Further, in data set [2], the “ϕF (fluorescence quantum yield)” value came to 0.4. Besides, the “λmax (maximum absorption wavelength)” value in data set [6] came to 663 nm.
Regarding `CCN(CC)c1ccc2c(c1)S(Cl)=c1cc(NC)c3ccsc3c1=N2` (stereo not drawn) [Compound I-2], the “PI (phototherapeutic index)” value in the data set with MCF-7 cells [1] was found to be 14.2; in the data set on A549 cells [4], 21.66; in the data set with HeLa cells [5], 23.49; in the data set with 4T1 cells [10], 24.41. For the same compound, the half-maximal inhibitory concentration (IC50) turned out to be 140 nM in the data set with MCF-7 cells [1]; 3140 nM in the data set with HeLa cells [3]; 320 nM with A549 cells [4]; 130 nM in the data set on HeLa cells [5]; 2.03 µM with MCF-7 cells [7]; 17.6 µM in the data set with HUVEC cells. Moreover, the half-inhibitory concentration (IC50) with A549 cells [8] turned out to be 6.93 µM; with 4T1 cells [9] (Mus musculus) it was 9.79 µM; in the data set on 4T1 cells [10] (setting [11]), 400 nM. Besides, the “λem” value in data set [2] was 698 nm. In addition, the “ϕF (fluorescence quantum yield)” value in data set [2] came out at 0.5. The “λmax (maximum absorption wavelength)” value in data set [6] is reported as 671 nm.
In the case of `CCCCCNc1cc2c(c3sccc13)=Nc1ccc(N(CC)CC)cc1S=2Cl` (stereo not drawn) [Compound I-4], the “PI (phototherapeutic index)” value in the data set on MCF-7 cells [1] was 9.05; in the data set on A549 cells [4] it was 11.09; with HeLa cells [5], 4.32; in the data set on 4T1 cells [10], 4.16. In addition, the concentration for half-maximal inhibition (IC50) in the data set with MCF-7 cells [1] turned out to be 390 nM; in the data set with HeLa cells [3], 1890 nM; in the data set with A549 cells [4] it was 310 nM; with HeLa cells [5], 440 nM; with MCF-7 cells [7], 3.49 µM; in the data set on HUVEC cells, 10.4 µM. In addition, the concentration for half-maximal inhibition (IC50) came out at 3.49 µM with A549 cells [8], 5.48 µM in the data set with 4T1 cells [9] (Mus musculus) and 1320 nM in the data set on 4T1 cells [10] (setting [11]). Further, in data set [2], the “λem” value came to 701 nm. Also, in [2], the “ϕF (fluorescence quantum yield)” value stood at 0.5. The “λmax (maximum absorption wavelength)” value in data set [6] was 673 nm.
Take `CCCCCCCNc1cc2c(c3sccc13)=Nc1ccc(N(CC)CC)cc1S=2Cl` (stereo not drawn) [Compound I-5]: the “PI (phototherapeutic index)” value with MCF-7 cells [1] is 7.11; in the data set with A549 cells [4], 8.57; with HeLa cells [5] it was 3.32; with 4T1 cells [10], 2.22. The IC50 in the data set with MCF-7 cells [1] came to 470 nM; with HeLa cells [3], 1440 nM; in the data set with A549 cells [4] it was 420 nM; in the data set with HeLa cells [5], 430 nM; in the data set with MCF-7 cells [7] it was 3.34 µM; in the data set on HUVEC cells it was 7.63 µM. Moreover, the values for the concentration for half-maximal inhibition (IC50) in the data set with A549 cells [8], with 4T1 cells [9] (Mus musculus) and with 4T1 cells [10] (setting [11]) were 3.57 µM, 4.27 µM and 1920 nM, respectively. In data set [2], the “λem” value was found to be 700 nm. Also, the “ϕF (fluorescence quantum yield)” value in data set [2] turned out to be 0.6. In addition, in data set [6], the “λmax (maximum absorption wavelength)” value is recorded as 674 nm.
For `CN(C)c1ccc2nc3ccc(=[N+](C)C)cc-3sc2c1` [MB, Methylene blue, reference compound], the IC50 was found to be 25.7 µM with 4T1 cells [9] and 14100 nM in the data set with 4T1 cells [10].
